Results as given in patent US8536124B2, “Artificial decapeptide for inducing vitellogenesis in fish” (National Pingtung University of Science & Technology, priority 2010, dated 2013).

System: Mugil cephalus
Assay: Ovum maturation (vitellogenesis) of Mugil cephalus after implantation of sustained-release capsules
Assay type: in vivo
Conditions: M. cephalus, implanted in May, diameter in October; preparation 400 μg, estradiol 1000 μg; FIG. 3
Text: Additionally, a method for inducing vitellogenesis in fish can also be developed, by implanting the preparation of the present invention into body cavity or body wall of bony fish, for example in lateral muscle or abdomen cavity, in order to inducing the sexual maturation and vitellogenesis in the bony fish. With reference to FIG. 1, the preparation of the present invention is preferably implanted into lateral muscle adjacent to dorsal fin 21 of a bony fish 2 by an injector 1 in the present embodiment. Accordingly, the decapeptide in the preparation can be sustaining released into the bony fish for long-term inducing the hypophysis to synthesize and secrete gonadotropin (GtH) so that the vitellogenesis and breeding of the bony fish can be achieved.
Referring to FIG. 3, the responses of Mugil cephalus on decapeptide-induction are shown. In the present embodiment, several farming M. cephalus, are prepared and randomly assigned into five groups including (b1), (b2) ovaprin group, (b3) estradiol group, (b4) MixT group and (b5) control group. […] Moreover, ova of each group of M. cephalus are collected and analyzed monthly after implantation for monitoring the vitellogenesis in each group of M. cephalus. The ovum maturation of each group of M. cephalus is also determined in accordance with the size and accumulation of the ovum.

C[C@]12CC[C@@H]3c4ccc(O)cc4CC[C@H]3[C@@H]1CC[C@@H]2O [estradiol]
oocyte diameter: about 380 μm
